In patent publication US12570662B2, “Substituted pyrrolo[1,2-b]pyridazines as bifunctional degraders of interleukin-1 receptor-associated kinases” (Nurix Therapeutics, Inc., priority 2021, dated 2026) one finds DC50 and Dmax data, which are given here for 7 compounds.

This assay deals with T1, IRAK4 (Homo sapiens, UniProt Q9NWZ3).
T1 construct: C-terminal HiBiT-tagged Jurkat cells (polyclonal cell line or clone 8D5); endogenous in cells; host or cells: Jurkat cells (polyclonal cell line or clone 8D5), HiBiT-tagged
T1 sequence (Q9NWZ3 1-460): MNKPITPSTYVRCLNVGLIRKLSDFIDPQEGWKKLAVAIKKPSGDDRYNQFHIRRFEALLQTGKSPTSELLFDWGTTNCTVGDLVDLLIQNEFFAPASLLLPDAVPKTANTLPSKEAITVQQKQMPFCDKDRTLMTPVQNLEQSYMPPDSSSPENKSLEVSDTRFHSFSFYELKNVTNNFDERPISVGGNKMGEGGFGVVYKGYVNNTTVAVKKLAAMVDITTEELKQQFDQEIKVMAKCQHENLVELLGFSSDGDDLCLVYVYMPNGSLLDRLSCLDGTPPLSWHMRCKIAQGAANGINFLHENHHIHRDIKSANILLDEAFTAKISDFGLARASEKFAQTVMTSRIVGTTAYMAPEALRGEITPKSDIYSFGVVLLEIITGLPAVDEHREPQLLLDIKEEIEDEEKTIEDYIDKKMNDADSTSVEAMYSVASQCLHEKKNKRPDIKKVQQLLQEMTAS
The assay is described as follows: IRAK4 Degradation HiBit Assay. To be noted: C-terminal HiBiT-tagged Jurkat cells, 4 hrs incubation; for DC50: % IRAK4 remaining, four-parameter fit (IC50 used as DC50); for Dmax: from fit of % IRAK4 remaining, read-out: Dmax. It counts as cell-based. The method, boiled down:
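Jurkat cells carrying C-terminal HiBiT-tagged IRAK4 (polyclonal or clone 8D5) exposed to compound, 10 μM–0.1 nM final over 11 points, for 4 h at 32 °C. Remaining IRAK4 measured by lytic HiBiT/LgBiT luminescence relative to DMSO. DC50 and Dmax taken from four-parameter variable-slope fits.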
On the technique in general: With HiBiT, luminescence reflects the tagged protein that the partner subunit can reach.

Broadly, the DC50 is the concentration giving 50% degradation. Low readings indicate a more potent degrader, high ones a less potent degrader. For orientation: Dmax means the greatest extent of degradation seen. In the case of `CNc1cc(-c2ccc3cc(C#N)cnn23)ncc1-c1nnc(N2CC3(CCN(CC4CCN(c5ccc(C6CCC(=O)NC6=O)cn5)CC4)CC3)C2)s1` (racemic) [Example 55, rac-7-[5-(5-{7-[(1-{5-[(3R)-2,6-dioxopiperidin-3-yl]pyridin-2-yl}piperidin-4-yl)methyl]-2,7-diazaspiro[3.5]nonan-2-yl}-1,3,4-thiadiazol-2-yl)-4-(methylamino)pyridin-2-yl]pyrrolo[1,2-b]pyridazine-3-carbonitrile], it took 61 nM to reach half-maximal degradation (DC50) and the Dmax was 109%.
For the compound `CC(C)Nc1cc(-c2ccc3cc(C#N)cnn23)ncc1-c1nnc(N2CCN(CC3CCN(c4ccc(C5CCC(=O)NC5=O)cn4)CC3)CC2)s1` (racemic) [Example 56, rac-7-[5-(5-{4-[(1-{5-[(3R)-2,6-dioxopiperidin-3-yl]pyridin-2-yl}piperidin-4-yl)methyl]piperazin-1-yl}-1,3,4-thiadiazol-2-yl)-4-[(propan-2-yl)amino]pyridin-2-yl]pyrrolo[1,2-b]pyridazine-3-carbonitrile], the DC50 turned out to be 160 nM and the Dmax was 102%.
The matching figures for `N#Cc1cnn2c(-c3cc(NC4CCOCC4)c(-c4nnc(C56CCC(C(=O)N7CCc8cc(C9CCC(=O)NC9=O)ccc8C7)(CC5)CC6)s4)cn3)ccc2c1` (racemic) [Example 57, rac-7-{5-[5-(4-{6-[(3R)-2,6-dioxopiperidin-3-yl]-1,2,3,4-tetrahydroisoquinoline-2-carbonyl}bicyclo[2.2.2]octan-1-yl)-1,3,4-thiadiazol-2-yl]-4-[(oxan-4-yl)amino]pyridin-2-yl}pyrrolo[1,2-b]pyridazine-3-carbonitrile]: 71 nM and 104%.
The matching figures for `CC1(Nc2cc(-c3ccc4cc(C#N)cnn34)ncc2-c2nnc(N3CCN(CC4CCN(c5ccc(C6CCC(=O)NC6=O)cn5)CC4)CC3)s2)COC1` (racemic) [Example 58, rac-7-[5-(5-{4-[(1-{5-[(3R)-2,6-dioxopiperidin-3-yl]pyridin-2-yl}piperidin-4-yl)methyl]piperazin-1-yl}-1,3,4-thiadiazol-2-yl)-4-[(3-methyloxetan-3-yl)amino]pyridin-2-yl]pyrrolo[1,2-b]pyridazine-3-carbonitrile]: 21 nM and 113%.
As for `N#CCNc1cc(-c2ccc3cc(C#N)cnn23)ncc1-c1nnc(N2CCN(CC3CCN(c4ccc(C5CCC(=O)NC5=O)cn4)CC3)CC2)s1` (racemic) [Example 59, rac-7-{4-[(cyanomethyl)amino]-5-(5-{4-[(1-{5-[(3R)-2,6-dioxopiperidin-3-yl]pyridin-2-yl}piperidin-4-yl)methyl]piperazin-1-yl}-1,3,4-thiadiazol-2-yl)pyridin-2-yl}pyrrolo[1,2-b]pyridazine-3-carbonitrile], half-maximal degradation (DC50) was put at 7 nM and the Dmax is 120%.
The corresponding values for `N#Cc1cnn2c(-c3cc(NC4COC4)c(-c4nnc(N5CCN(CC6CCN(c7ccc(C8CCC(=O)NC8=O)cn7)CC6)CC5)s4)cn3)ccc2c1` (racemic) [Example 61, rac-7-[5-(5-{4-[(1-{5-[(3R)-2,6-dioxopiperidin-3-yl]pyridin-2-yl}piperidin-4-yl)methyl]piperazin-1-yl}-1,3,4-thiadiazol-2-yl)-4-[(oxetan-3-yl)amino]pyridin-2-yl]pyrrolo[1,2-b]pyridazine-3-carbonitrile] are 18 nM and 111%.
The matching figures for `CC(C)Nc1cc(-c2ccc3cc(C#N)cnn23)ncc1-c1nnc(N2CCN(CC3CCN(c4ccc(C5CCC(=O)NC5=O)cc4)CC3)CC2)s1` (racemic) [Example 64, rac-7-[5-(5-{4-[(1-{4-[(3R)-2,6-dioxopiperidin-3-yl]phenyl}piperidin-4-yl)methyl]piperazin-1-yl}-1,3,4-thiadiazol-2-yl)-4-[(propan-2-yl)amino]pyridin-2-yl]pyrrolo[1,2-b]pyridazine-3-carbonitrile]: 123 nM and 76%.
